The assay deals with beta-TC6 cells. As to the kind of experiment: Insulin HTRF assay, relative activity Ar normalized to sunitinib. As to conditions: Mus musculus, normalized to positive control sunitinib (5 µM = 100%), Table 10. In kind it is cell-based. The text has this: For further screening of compounds derived from compounds described above for their ability to regulate insulin release an insulin HTRF® (Homogeneous Time-Resolved Fluorescence; Cisbio International, France) was used. This assay is based on two antibodies against insulin binding to different epitopes of insulin. One of these antibodies is coupled to Europium (Ab-Eu-Cryptate) and the other one to the fluorophore XL665 (Ab-XL665). Is insulin secreted into the supernatant of cell culture both antibodies can bind to insulin and come therefore into close proximity which allows upon excitation that energy transfer between (FRET) the long-life fluorescent donor Europium (cryptate) and the acceptors XL665. FRET increases proportionally with insulin concentration.
The automated assay protocol is as follows: • On day 1 15k beta-TC6 cells per well were seeded for 24 or 48 h in 50 µl complete medium. On day 2 or respective on day 3 the medium is removed and cells are washed with 60 µl 1xPBS and 20 µl induction buffer is added using BioTek washer. Subsequently, 10 µl Sunitininb (5 µM f.c.) or the test compound in induction buffer; 0.5% f.c. DMSO (CyBi-well) is transferred to the cells. The cells are then incubated at 37°C for 2, 3, 4h.
The HTRF assay is carried out using Greiner 384-well 784075 assay plates. First 10 µl supernatant is transferred from the cell plates in HTRF plates (CyBi-well). 10 µl of 0, 1, 2, and 4 ng/ml Insulin standard controls in assay medium is used as a control. To each well 10 µl of combined 1:25 Ab-XL665 (Acc) and 1:20 Ab-Eu-Cryptate (WellMate) are added and incubated for 120 min at RT in the dark. Finally HTRF is measured on ViewLux ultra high throughput microplate imager (PerkinElmer).
The evaluation software DataFactoty derives relative activities Ar according to the following equation: Ar = (V-R(0%control))/(R(100%control) -R(0%control)) × 100 [formula] […]
The activity of the compounds was classified according to their Ar (relative activity) into the following ranges: Ar ≥ 100% + + + +; 50% ≤ Ar < 100% + + +; 20% ≤ Ar < 50% + +; 10% < Ar < 20% + [formula] Table 10. Ar (relative activity) values of inventive compounds
On the technique in general: Time-resolved FRET reads energy transfer from a long-lived donor to a nearby acceptor.
The compound `COc1cc(-c2cnc3cnc(-c4cnn(C)c4)cn23)ccc1O` [compound 397, 2-methoxy-4-[6-(1-methylpyrazol-4-yl)imidazo[1,2-a]pyrazin-3-yl]phenol] came in with an Emax of 50 to 100%.
With `CN1CCN(c2ccc(-c3cn4c(-c5cccc(O)c5)cnc4cn3)cc2)CC1` [compound 367, 3-[6-[4-(4-methylpiperazin-1-yl)phenyl]imidazo[1,2-a]pyrazin-3-yl]phenol], the Emax fell in the range of 20 to 50%.
As for `CN(C)C(=O)c1ccc(-c2cnc3cnc(-c4ccsc4)cn23)cc1` [compound 431, N,N-dimethyl-4-[6-(3-thienyl)imidazo[1,2-a]pyrazin-3-yl]benzamide], the figure is 20 to 50%.
In turn, `Fc1cccc(-c2cnc3cnc(-c4ccc(N5CCNCC5)cc4)cn23)c1` [compound 387, 3-(3-fluorophenyl)-6-(4-piperazin-1-ylphenyl)imidazo[1,2-a]pyrazine] registered a maximal effect (Emax) of 10 to 20%.
As for `CN(C)c1ccc(-c2cnc3cnc(-c4ccc(C(=O)NCCO)cc4)cn23)cc1` [compound 290, 4-[3-(4-dimethylaminophenyl)imidazo[1,2-a]pyrazin-6-yl]-N-(2-hydroxyethyl)benzamide], the figure is 50 to 100%; as for `N#Cc1cccc(-c2cnc3cccnn23)c1` [compound 82, 3-imidazo[1,2-b]pyridazin-3-ylbenzonitrile], 20 to 50%; as for `COc1ccc(-c2nnc3ccc(-c4cccc(N(C)C)c4)cn23)cc1OC` [compound 185, 3-[3-(3,4-dimethoxyphenyl)-[1,2,4]triazolo[4,3-a]pyridin-6-yl]-N,N-dimethyl-aniline], 50 to 100%.
Take `N#Cc1ccc(-c2cnc3cnc(-c4ccsc4)cn23)cc1` [compound 336, 4-[6-(3-thienyl)imidazo[1,2-a]pyrazin-3-yl]benzonitrile]: the Emax fell in the range of 20 to 50%.
As for `OCc1cccc(-c2cnc3ccc(-c4cccc(Oc5ccccc5)c4)nn23)c1` [compound 133, [3-[6-(3-phenoxyphenyl)imidazo[1,2-b]pyridazin-3-yl]phenyl]methanol], the figure is 20 to 50%.
The compound `CN1CCN(c2ccc(-c3cn4c(-c5ccc(C(=O)N(C)C)cc5)cnc4cn3)cn2)CC1` [compound 429, N,N-dimethyl-4-[6-[6-(4-methylpiperazin-1-yl)-3-pyridyl]imidazo[1,2-a]pyrazin-3-yl]benzamide] registered an Emax of 20 to 50%.
`O=C(O)CCc1ccc(-c2cnc3cnc(-c4ccccc4CO)cn23)cc1` [compound 333, 3-[4-[6-[2-(hydroxymethyl)phenyl]imidazo[1,2-a]pyrazin-3-yl]phenyl]propanoic acid] showed an Emax of 20 to 50%.
`Fc1cccc(-c2cnc3cnc(-c4ccc(Cl)cc4)cn23)c1` [compound 388, 6-(4-chlorophenyl)-3-(3-fluorophenyl)imidazo[1,2-a]pyrazine] gave an Emax of 20 to 50%.
As for `Nc1cccc(-c2cnc3ccc(NC4CCOCC4)nn23)c1` [compound 33, 3-(3-aminophenyl)-N-tetrahydropyran-4-yl-imidazo[1,2-b]pyridazin-6-amine], the figure is 20 to 50%; as for `c1csc(-c2cnc3cnc(-c4ccsc4)cn23)c1` [compound 415, 3-(2-thienyl)-6-(3-thienyl)imidazo[1,2-a]pyrazine], 50 to 100%; as for `OCc1ccc(-c2cnc3ccc(-c4cncnc4)nn23)cc1` [compound 130, [4-(6-pyrimidin-5-ylimidazo[1,2-b]pyridazin-3-yl)phenyl]methanol], 10 to 20%.
As for `CC(=O)Nc1cccc(-c2cnc3ccc(NCc4ccc(F)cc4)nn23)c1` [compound 19, N-[3-[6-[(4-fluorophenyl)methylamino]imidazo[1,2-b]pyridazin-3-yl]phenyl]acetamide], the Emax was in the range of 10 to 20%.
The compound `CN(C)CC#Cc1ccc2nnc(-c3ccccc3)n2c1` [compound 168, N,N-dimethyl-3-(3-phenyl-[1,2,4]triazolo[4,3-a]pyridin-6-yl)prop-2-yn-1-amine] yielded an Emax of 10 to 20%.
As for `COc1cc(-c2cnc3cnc(-c4ccc(N5CCN(C)CC5)nc4)cn23)cc(OC)c1OC` [compound 340, 6-[6-(4-methylpiperazin-1-yl)-3-pyridyl]-3-(3,4,5-trimethoxyphenyl)imidazo[1,2-a]pyrazine], the figure is 20 to 50%.
The same measure for `C(=C\c1cn2c(-c3cccs3)cnc2cn1)/c1ccccc1` [compound 419, 6-[(E)-styryl]-3-(2-thienyl)imidazo[1,2-a]pyrazine]: 20 to 50%; for `CC(C)N1CCN(c2ccc(-c3cn4c(-c5ccc(C(=O)NC6CC6)cc5)cnc4cn3)cc2)CC1` [compound 435, N-cyclopropyl-4-[6-[4-(4-isopropylpiperazin-1-yl)phenyl]imidazo[1,2-a]pyrazin-3-yl]benzamide]: 20 to 50%; for `COc1cc(-c2cn3c(-c4ccc5c(ccn5C)c4)cnc3cn2)ccc1O` [compound 400, 2-methoxy-4-[3-(1-methylindol-5-yl)imidazo[1,2-a]pyrazin-6-yl]phenol]: 20 to 50%.
`COc1cc(-c2ccc3nnc(-c4cccc(C(F)(F)F)c4)n3c2)cc(OC)c1OC` [compound 210, 3-[3-(trifluoromethyl)phenyl]-6-(3,4,5-trimethoxyphenyl)-[1,2,4]triazolo[4,3-a]pyridine] registered an Emax of 50 to 100%.
The same measure for `O=C(Nc1cnc2cnc(-c3ccsc3)cn12)c1cccs1` [compound 263, N-[6-(3-thienyl)imidazo[1,2-a]pyrazin-3-yl]thiophene-2-carboxamide]: 20 to 50%; for `CN(C)CCCOc1ccc(-c2nnc3ccc(-c4ccc(Cl)cc4)cn23)cc1` [compound 237, 3-[4-[6-(4-chlorophenyl)-[1,2,4]triazolo[4,3-a]pyridin-3-yl]phenoxy]-N,N-dimethyl-propan-1-amine]: 20 to 50%.
As for `CN(C)C(=O)c1cccc(-c2cn3c(-c4ccc(N(C)C)cc4)cnc3cn2)c1` [compound 293, 3-[3-(4-dimethylaminophenyl)imidazo[1,2-a]pyrazin-6-yl]-N,N-dimethyl-benzamide], the figure is 20 to 50%.
As for `CNc1ccc2ncc(-c3cccc(C(=O)N(C)C)c3)n2n1` [compound 61, N,N-dimethyl-3-[6-(methylamino)imidazo[1,2-b]pyridazin-3-yl]benzamide], the figure is 20 to 50%; as for `Cc1ccccc1-c1cn2c(-c3ccc4c(c3)OCO4)cnc2cn1` [compound 305, 3-(1,3-benzodioxol-5-yl)-6-(o-tolyl)imidazo[1,2-a]pyrazine], 20 to 50%.
The compound `COc1cccc(CC(=O)Nc2cnc3cnc(-c4cnn(C)c4)cn23)c1` [compound 261, 2-(3-methoxyphenyl)-N-[6-(1-methylpyrazol-4-yl)imidazo[1,2-a]pyrazin-3-yl]acetamide] showed an Emax of 10 to 20%.
With `CC(C)[C@@H](CO)Nc1ccc2ncc(-c3ccc(N)cc3)n2n1` [compound 5, (2S)-2-[[3-(4-aminophenyl)imidazo[1,2-b]pyridazin-6-yl]amino]-3-methyl-butan-1-ol], the Emax lay within 50 to 100%.
As for `O=C(Nc1cnc2cnc(-c3cnn(Cc4ccccc4)c3)cn12)C1CCC1` [compound 273, N-[6-(1-benzylpyrazol-4-yl)imidazo[1,2-a]pyrazin-3-yl]cyclobutanecarboxamide], the Emax was 20 to 50%.
Regarding `Clc1ccccc1-c1ccc2ncc(-c3cccs3)n2n1` [compound 158, 6-(2-chlorophenyl)-3-(2-thienyl)imidazo[1,2-b]pyridazine], the Emax was 10 to 20%.
With `Clc1cccc(-c2cn3c(-c4cccs4)cnc3cn2)c1` [compound 421, 6-(3-chlorophenyl)-3-(2-thienyl)imidazo[1,2-a]pyrazine], the Emax was in the range of 20 to 50%.
Compound `Oc1cccc(-c2cnc3ccc(-c4ccc(F)cc4)nn23)c1` [compound 127, 3-[6-(4-fluorophenyl)imidazo[1,2-b]pyridazin-3-yl]phenol] gave an Emax of 20 to 50%.
The same measure for `COc1ccc(-c2cnc3cnc(-c4cccc(C(N)=O)c4)cn23)cn1` [compound 383, 3-[3-(6-methoxy-3-pyridyl)imidazo[1,2-a]pyrazin-6-yl]benzamide]: 20 to 50%.
Take `COc1cc(C#Cc2ccc3nnc(-c4ccc(OCCCN(C)C)cc4)n3c2)cc(OC)c1` [compound 239, 3-[4-[6-[2-(3,5-dimethoxyphenyl)ethynyl]-[1,2,4]triazolo[4,3-a]pyridin-3-yl]phenoxy]-N,N-dimethyl-propan-1-amine]: the Emax was 20 to 50%.
Compound `CN(C)/C(=C1\N=C(c2ccccc2)OC1=O)c1cnc2cccnn12` [compound 162, (4Z)-4-[dimethylamino(imidazo[1,2-b]pyridazin-3-yl)methylene]-2-phenyl-oxazol-5-one] displayed an Emax of 10 to 20%.

The term Emax denotes the size of the effect at its maximum, as opposed to the concentration needed.

Source of the values: EP2818471A1, “Nitrogen bicyclic compounds as inhibitors for Scyl1 and Grk5” (Max-Planck-Gesellschaft zur Förderung der Wissenschaften …, priority 2013, dated 2014).
